# Test results as given in ChEMBL document CHEMBL1201862, “PubChem BioAssay data set” (2004).
# Calls of active or inactive are those of the source.
# Experiments:
# [1] = target: T1, Runt-related transcription factor 1/Core-binding factor subunit beta (Homo sapiens, UniProt Q01196+Q13951); assay: inhibitors of RUNX1 Runt–CBFb-SMMHC binding, biochemical, TR-FRET (AID 1438); assay type: protein assay
# [2] = NIH-3T3 fibroblast cytotoxicity, dose response, cytotoxicity control, cell-based, fluorescence, Alamar Blue, secondary assay (AID 2327); assay type: functional;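 also: NIH-3T3 mouse fibroblasts cultured with fluconazole at 8 µg/mL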
# [3] = target: T1, Runt-related transcription factor 1/Core-binding factor subunit beta; assay: inhibitors of RUNX1 Runt–CBFb-SMMHC binding, primary screen, biochemical, FRET, Cerulean-Runt, Venus-CBFb-SMMHC, uHTS (AID 1434); assay type: protein assay;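 also: partner is the CBFb-SMMHC leukemia fusion protein rather than wild-type CBFb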
# [4] = system: T-cell; assay: inhibitors of CD8+ T cell–vesicle binding, dose response, mouse 2C CD8+ T cells, flow cytometry (AID 485284); assay type: functional
# [5] = target: Cytochrome P450 2C19 (Homo sapiens, UniProt P33261); assay: Cytochrome panel assay with activity outcomes. Panel member name: p450-cyp2c19 Compounds with AC50 equal or less than 10 uM are considered active; assay type: functional; conditions: read-out: AC50
# [6] = system: CHO-K1; assay: Counterscreen for antagonists of the orexin 1 receptor (OX1R; HCRTR1): Homogeneous time resolved fluorescence (HTRF)-based cell-based dose response assay to identify antagonists of the parental CHO-K1 cell line. [Related pubchem assays (depositor defined):AID434989, AID435008, AID463079, AID485270, AID492963, AID492964, AID492965, AID493232, AID504699, AID504701]; assay type: functional; conditions: Cricetulus griseus;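 also: potency for inhibition of ATP-stimulated IP1 production as antagonists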
# [7] = Counterscreen for antagonists of the orexin 1 receptor (OX1R; HCRTR1): Fluorescence-based cell-based high throughput dose response assay to identify antagonists of the parental CHO cell line. [Related pubchem assays (depositor defined):AID434989, AID435008, AID463079, AID485270, AID492963, AID492964, AID492965, AID493232, AID504699, AID504701]; assay type: functional
# [8] = target: T2, Orexin receptor type 2 (Homo sapiens, UniProt O43614); assay: Counterscreen assay for antagonists of the orexin 1 receptor (OX1R; HCRTR1): Homogeneous Time Resolved Fluorescence (HTRF)-based cell-based dose response assay for antagonists of the orexin 2 receptor (OX2R; HCRTR2), run by assay provider.; assay type: functional
# T2 sequence (O43614 whole entry): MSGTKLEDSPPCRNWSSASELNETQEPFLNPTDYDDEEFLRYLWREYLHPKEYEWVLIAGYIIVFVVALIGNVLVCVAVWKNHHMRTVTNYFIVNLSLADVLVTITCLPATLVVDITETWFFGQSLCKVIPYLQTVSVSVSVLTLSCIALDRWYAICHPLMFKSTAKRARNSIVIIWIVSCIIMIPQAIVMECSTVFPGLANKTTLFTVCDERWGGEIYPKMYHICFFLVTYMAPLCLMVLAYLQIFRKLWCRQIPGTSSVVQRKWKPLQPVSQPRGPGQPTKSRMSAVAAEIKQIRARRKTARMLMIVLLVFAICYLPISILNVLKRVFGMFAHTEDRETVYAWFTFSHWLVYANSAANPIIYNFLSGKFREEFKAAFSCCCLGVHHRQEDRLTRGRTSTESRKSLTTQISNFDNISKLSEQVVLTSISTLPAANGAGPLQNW
# [9] = target: T3, Orexin/Hypocretin receptor type 1 (Homo sapiens, UniProt O43613); assay: Homogeneous Time Resolved Fluorescence (HTRF)-based cell-based high throughput dose response assay for antagonists of the orexin 1 receptor (OX1R; HCRTR1). [Related pubchem assays (depositor defined):AID434989, AID435008, AID463079, AID485270, AID492963, AID492964, AID492965, AID493232, AID504717, AID504718]; assay type: functional
# [10] = target: T2, Orexin receptor type 2; assay: Counterscreen assay for antagonists of the orexin 1 receptor (OX1R; HCRTR1): Fluorescence-based cell-based dose response assay for antagonists of the orexin 2 receptor (OX2R; HCRTR2), run by assay provider.; assay type: functional
# [11] = target: T3, Orexin/Hypocretin receptor type 1; assay: Fluorescence-based cell-based high throughput dose response assay for antagonists of the orexin 1 receptor (OX1R; HCRTR1). [Related pubchem assays (depositor defined):AID434989, AID435008, AID463079, AID485270, AID492963, AID492964, AID492965, AID493232, AID504717, AID504718]; assay type: functional
# [12] = target: T4, E3 ubiquitin-protein ligase XIAP (Homo sapiens, UniProt P98170); assay: Counter Screen using XIAP-Bir3 for Chemical Antagonists of Bir1/2 domains of IAP-family anti-apoptotic proteins. [Related pubchem assays (depositor defined):AID1018, AID1449, AID1514, AID1638, AID1749, AID1750, AID488957, AID488963]
# [13] = target: T4, E3 ubiquitin-protein ligase XIAP; assay: XIAP antagonists, biochemical, IAP family, fluorescence polarization (AID 1018); assay type: functional
# [14] = THP-1 cell cytotoxicity, dose response, cytotoxicity control for Vif-APOBEC3G degradation inhibitor project, THP-1 cells (AID 1117359); assay type: functional; conditions: Human immunodeficiency virus 1, THP-1
# [15] = target: Nonstructural protein 1 (Influenza A virus, UniProt Q194T2); assay type: functional, Influenza A virus (A/California/07/2009(H1N1))
# [16] = target: Hexokinase-1 (Homo sapiens, UniProt P19367); assay: hexokinase 1 activators, dose response, selectivity assay for HKDC1 activator project, biochemical (AID 504762); assay type: functional
# [17] = target: T5, Hexokinase HKDC1 (Homo sapiens, UniProt Q2TB90); assay: HKDC1 hexokinase activators, dose response, biochemical, W721R variant (AID 504730); assay type: functional
# T5 sequence (Q2TB90 whole entry): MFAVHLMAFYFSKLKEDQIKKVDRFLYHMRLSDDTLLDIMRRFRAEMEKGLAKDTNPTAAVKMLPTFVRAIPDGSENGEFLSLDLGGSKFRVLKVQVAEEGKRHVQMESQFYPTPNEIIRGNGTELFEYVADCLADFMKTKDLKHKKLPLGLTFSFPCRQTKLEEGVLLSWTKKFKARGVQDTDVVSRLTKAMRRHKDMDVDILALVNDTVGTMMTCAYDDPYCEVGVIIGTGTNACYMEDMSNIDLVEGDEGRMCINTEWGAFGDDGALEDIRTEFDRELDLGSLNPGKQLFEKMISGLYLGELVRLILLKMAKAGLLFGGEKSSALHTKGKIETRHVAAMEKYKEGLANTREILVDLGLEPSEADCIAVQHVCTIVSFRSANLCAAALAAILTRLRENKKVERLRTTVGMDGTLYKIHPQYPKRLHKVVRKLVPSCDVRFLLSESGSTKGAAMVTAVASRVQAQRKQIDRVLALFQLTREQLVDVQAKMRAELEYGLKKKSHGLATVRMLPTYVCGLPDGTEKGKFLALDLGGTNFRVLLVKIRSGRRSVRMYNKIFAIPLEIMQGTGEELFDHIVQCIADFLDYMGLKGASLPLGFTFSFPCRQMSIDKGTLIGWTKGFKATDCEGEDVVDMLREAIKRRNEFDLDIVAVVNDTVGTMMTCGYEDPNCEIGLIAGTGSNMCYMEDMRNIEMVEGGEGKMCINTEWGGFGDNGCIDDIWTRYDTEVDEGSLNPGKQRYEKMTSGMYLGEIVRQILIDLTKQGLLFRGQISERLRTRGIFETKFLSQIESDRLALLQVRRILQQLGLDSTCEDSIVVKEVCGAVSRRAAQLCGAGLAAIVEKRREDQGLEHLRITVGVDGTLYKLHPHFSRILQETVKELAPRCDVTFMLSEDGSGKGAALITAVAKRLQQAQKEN
# [18] = target: T6, Fatty acid synthase (Homo sapiens, UniProt P49327); assay: FAS thioesterase domain inhibitors, dose response, biochemical, kinetic fluorescence intensity (AID 624326); assay type: functional;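 also: rate of fluorescence rise from hydrolysis of a fluorogenic O-methyl fluorescein ester substrate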
# [19] = system: HEK293; assay: NOD2 signaling inhibitors in MDP-stimulated cells, cell-based, uHTS, luminescence (AID 2001); assay type: functional; conditions: Homo sapiens
# [20] = target: T6, Fatty acid synthase; assay: FAS thioesterase domain inhibitors, dose response, biochemical, endpoint fluorescence intensity, uHTS hits (AID 624327); assay type: functional;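 also: fluorescence from hydrolysis of an O-methyl fluorescein acyl ester substrate by the enzyme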
# [21] = system: HEK293; assay: cells; assay type: functional, cell-based; conditions: Homo sapiens
# [22] = system: HEK293; assay: NOD1 signaling inhibitors, primary screen, cell-based, luminescence, uHTS (AID 1578); assay type: functional; conditions: Homo sapiens
# [23] = system: Streptococcus sp. 'group A'; assay: growth inhibition of control SK(-) GAS strain, dose response, counter-screen for streptokinase expression inhibitor project, luminescence, kanamycin, BacTiterGlo, confirmation (AID 1900); assay type: functional, organism-based
# [24] = system: Streptococcus; assay: Group A Streptococcus viability loss, dose response, counter-screen for streptokinase expression inhibitor project, luminescence, BacTiterGlo (AID 1915); assay type: functional, organism-based;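 also: potency for reduction of bacterial viability or growth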
# [25] = target: Nucleotide-binding oligomerization domain-containing protein 2 (Homo sapiens, UniProt Q9HC29); assay: NOD2 signaling inhibitors, cell-based, luminescence, uHTS, HEK293 (AID 1566); assay type: functional
# [26] = microbe, parasite or virus in culture; assay type: functional; conditions: Mycobacterium tuberculosis
# [27] = system: INS1; assay: beta cell apoptosis inhibitors, cytokine rescue, dose response, luminescence, retest (AID 449756); assay type: functional, cell-based; conditions: Rattus norvegicus;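 also: cell death triggered by IL-1 beta plus TNF-alpha plus IFN-gamma mixture; protective hits raise ATP signal compared with cytokine alone wells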
# [28] = system: HEK293; assay: cells; assay type: functional, cell-based; conditions: Homo sapiens; remark: listed apart in the source
# [29] = system: HEK293; assay: cells; assay type: functional, cell-based; conditions: Homo sapiens; remark: listed apart in the source
# [30] = HEp-2 cell cytotoxicity, dose response, cytotoxicity control for RSV inhibitor project, HTS (AID 2410); assay type: functional; conditions: human respiratory syncytial virus
# [31] = target: Peroxisome proliferator-activated receptor gamma (Homo sapiens, UniProt P37231); assay: PPARg partial agonists, dose response, cell-based, luminescence, assay provider (AID 504447); assay type: functional
# [32] = target: T7, Coagulation factor XII (Homo sapiens, UniProt P00748); assay: FXIIa inhibitor potency, concentration-response, biochemical (AID 716); assay type: functional
# T7 sequence (P00748 whole entry): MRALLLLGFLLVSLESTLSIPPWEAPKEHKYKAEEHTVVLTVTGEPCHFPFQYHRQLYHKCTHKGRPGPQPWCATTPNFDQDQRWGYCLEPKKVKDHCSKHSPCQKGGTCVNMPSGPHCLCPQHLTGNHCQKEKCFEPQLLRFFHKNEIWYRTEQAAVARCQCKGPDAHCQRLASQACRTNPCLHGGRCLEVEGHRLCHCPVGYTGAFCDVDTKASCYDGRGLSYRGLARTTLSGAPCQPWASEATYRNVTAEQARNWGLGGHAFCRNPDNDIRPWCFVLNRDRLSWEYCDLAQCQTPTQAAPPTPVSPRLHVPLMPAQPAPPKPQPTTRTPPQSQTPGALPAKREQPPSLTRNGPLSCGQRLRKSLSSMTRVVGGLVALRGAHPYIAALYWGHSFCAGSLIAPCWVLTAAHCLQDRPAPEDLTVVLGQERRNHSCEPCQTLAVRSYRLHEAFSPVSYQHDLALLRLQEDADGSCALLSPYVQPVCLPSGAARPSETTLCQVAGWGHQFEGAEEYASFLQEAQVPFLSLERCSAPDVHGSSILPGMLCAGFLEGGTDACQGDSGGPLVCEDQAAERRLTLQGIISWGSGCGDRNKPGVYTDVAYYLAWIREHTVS
# [33] = target: DNA damage-inducible transcript 3 protein (Mus musculus, UniProt P35639); assay type: functional, Cricetulus griseus
# [34] = target: G-protein coupled receptor 55 (Homo sapiens, UniProt Q9Y2T6); assay: GPR55 antagonists blocking LPI-driven arrestin recruitment, primary screen, imaging, U2OS, beta-arrestin-GFP, LPI agonist (AID 2013); assay type: functional;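 also: antagonist potency measured as reduced agonist-driven arrestin aggregation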
# Sequence of G-protein coupled receptor 55 (Q9Y2T6 whole entry): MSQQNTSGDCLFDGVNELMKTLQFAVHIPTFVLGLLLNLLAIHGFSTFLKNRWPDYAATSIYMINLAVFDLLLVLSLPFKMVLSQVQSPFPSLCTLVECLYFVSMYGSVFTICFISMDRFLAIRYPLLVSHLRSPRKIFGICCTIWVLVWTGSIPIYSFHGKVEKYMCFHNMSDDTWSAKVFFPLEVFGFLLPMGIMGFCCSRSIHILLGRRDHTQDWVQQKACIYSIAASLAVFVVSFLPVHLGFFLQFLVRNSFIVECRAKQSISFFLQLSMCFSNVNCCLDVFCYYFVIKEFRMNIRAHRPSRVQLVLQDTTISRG
# T6 sequence (P49327 whole entry, the tested form may be a part): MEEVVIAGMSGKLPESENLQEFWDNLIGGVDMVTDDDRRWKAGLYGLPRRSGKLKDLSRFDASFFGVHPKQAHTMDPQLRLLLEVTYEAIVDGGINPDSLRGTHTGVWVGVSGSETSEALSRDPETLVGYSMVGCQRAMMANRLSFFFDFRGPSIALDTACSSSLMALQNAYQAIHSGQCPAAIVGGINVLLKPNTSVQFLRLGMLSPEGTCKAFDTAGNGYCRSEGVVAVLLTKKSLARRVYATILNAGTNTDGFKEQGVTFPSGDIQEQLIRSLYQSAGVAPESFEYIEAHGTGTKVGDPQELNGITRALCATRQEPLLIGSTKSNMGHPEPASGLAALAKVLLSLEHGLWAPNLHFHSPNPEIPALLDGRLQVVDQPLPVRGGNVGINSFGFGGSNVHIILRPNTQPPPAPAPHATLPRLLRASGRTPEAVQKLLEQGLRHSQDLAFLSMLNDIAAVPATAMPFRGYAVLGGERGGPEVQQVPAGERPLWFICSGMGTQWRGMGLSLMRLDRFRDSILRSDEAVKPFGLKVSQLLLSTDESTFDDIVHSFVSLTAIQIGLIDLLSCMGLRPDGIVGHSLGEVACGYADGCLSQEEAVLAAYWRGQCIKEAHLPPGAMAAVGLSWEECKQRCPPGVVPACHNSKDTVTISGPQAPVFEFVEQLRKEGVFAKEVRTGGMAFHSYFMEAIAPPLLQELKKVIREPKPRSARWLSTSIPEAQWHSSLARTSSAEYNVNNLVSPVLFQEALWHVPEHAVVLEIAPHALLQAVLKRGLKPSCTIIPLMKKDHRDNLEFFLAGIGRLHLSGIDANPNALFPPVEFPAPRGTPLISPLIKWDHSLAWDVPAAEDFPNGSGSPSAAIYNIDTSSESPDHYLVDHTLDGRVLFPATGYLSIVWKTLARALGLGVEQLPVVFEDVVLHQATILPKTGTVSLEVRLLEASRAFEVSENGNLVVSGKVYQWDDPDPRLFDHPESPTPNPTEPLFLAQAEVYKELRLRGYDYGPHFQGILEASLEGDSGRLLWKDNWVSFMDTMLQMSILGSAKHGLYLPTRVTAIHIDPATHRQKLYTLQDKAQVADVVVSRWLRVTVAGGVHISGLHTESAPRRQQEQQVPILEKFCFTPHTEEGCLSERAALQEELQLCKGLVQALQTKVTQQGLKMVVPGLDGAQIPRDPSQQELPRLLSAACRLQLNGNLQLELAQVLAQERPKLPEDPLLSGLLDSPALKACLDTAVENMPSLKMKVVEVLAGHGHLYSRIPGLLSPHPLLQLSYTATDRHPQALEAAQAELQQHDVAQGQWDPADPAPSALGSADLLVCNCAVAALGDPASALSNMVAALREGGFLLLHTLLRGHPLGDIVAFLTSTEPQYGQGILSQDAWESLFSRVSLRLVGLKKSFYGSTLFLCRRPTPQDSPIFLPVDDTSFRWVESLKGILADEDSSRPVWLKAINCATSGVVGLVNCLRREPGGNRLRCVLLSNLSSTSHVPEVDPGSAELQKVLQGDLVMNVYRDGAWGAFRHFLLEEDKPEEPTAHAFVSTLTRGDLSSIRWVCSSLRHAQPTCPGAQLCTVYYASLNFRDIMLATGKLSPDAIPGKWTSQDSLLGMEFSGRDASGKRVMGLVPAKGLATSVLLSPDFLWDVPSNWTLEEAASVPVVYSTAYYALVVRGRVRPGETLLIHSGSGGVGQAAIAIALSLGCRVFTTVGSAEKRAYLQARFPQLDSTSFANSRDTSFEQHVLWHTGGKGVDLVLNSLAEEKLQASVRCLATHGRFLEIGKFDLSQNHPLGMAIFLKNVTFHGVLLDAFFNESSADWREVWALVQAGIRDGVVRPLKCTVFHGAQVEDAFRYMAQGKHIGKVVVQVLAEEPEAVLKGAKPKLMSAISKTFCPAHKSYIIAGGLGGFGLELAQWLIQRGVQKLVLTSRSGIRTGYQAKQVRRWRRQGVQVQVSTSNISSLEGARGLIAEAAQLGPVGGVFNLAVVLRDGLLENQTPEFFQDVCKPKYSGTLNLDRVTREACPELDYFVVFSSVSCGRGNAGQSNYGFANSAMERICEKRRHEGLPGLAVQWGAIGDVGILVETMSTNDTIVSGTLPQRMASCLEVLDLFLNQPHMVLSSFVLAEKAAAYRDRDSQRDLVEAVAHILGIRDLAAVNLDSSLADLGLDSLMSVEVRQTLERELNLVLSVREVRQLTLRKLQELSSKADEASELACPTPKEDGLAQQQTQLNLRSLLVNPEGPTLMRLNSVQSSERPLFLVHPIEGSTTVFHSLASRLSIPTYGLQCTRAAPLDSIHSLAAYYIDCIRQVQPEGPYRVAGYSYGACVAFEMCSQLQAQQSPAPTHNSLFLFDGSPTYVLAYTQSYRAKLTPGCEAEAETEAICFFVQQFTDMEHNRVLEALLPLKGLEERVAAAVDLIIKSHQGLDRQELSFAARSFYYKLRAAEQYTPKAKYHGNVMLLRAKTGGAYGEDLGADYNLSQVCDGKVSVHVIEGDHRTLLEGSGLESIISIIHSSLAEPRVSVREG
# T3 sequence (O43613 whole entry): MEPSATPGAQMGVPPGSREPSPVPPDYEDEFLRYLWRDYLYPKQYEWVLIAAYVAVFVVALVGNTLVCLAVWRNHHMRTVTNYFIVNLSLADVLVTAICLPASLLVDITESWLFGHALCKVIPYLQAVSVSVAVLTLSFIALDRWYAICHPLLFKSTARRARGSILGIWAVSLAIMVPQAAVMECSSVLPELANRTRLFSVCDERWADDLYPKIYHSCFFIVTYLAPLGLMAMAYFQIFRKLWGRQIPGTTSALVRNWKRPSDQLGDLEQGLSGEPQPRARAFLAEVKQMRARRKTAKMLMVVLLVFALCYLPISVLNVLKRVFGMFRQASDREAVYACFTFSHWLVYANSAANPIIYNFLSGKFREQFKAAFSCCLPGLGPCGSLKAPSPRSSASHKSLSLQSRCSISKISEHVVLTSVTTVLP
# T4 sequence (P98170 whole entry): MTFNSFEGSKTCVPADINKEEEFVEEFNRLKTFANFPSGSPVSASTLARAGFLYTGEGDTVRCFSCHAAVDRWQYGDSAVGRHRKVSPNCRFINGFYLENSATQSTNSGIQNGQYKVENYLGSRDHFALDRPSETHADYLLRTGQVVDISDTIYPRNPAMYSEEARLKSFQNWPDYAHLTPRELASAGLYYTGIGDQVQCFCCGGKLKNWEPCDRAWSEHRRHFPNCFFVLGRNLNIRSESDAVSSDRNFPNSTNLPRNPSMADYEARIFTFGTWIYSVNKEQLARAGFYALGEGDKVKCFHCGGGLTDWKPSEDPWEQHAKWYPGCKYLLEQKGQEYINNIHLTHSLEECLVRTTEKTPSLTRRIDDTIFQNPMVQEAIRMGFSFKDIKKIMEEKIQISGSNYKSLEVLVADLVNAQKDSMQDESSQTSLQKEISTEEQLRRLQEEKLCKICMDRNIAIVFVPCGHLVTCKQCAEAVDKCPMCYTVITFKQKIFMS
# T1 sequence (Q01196 whole entry): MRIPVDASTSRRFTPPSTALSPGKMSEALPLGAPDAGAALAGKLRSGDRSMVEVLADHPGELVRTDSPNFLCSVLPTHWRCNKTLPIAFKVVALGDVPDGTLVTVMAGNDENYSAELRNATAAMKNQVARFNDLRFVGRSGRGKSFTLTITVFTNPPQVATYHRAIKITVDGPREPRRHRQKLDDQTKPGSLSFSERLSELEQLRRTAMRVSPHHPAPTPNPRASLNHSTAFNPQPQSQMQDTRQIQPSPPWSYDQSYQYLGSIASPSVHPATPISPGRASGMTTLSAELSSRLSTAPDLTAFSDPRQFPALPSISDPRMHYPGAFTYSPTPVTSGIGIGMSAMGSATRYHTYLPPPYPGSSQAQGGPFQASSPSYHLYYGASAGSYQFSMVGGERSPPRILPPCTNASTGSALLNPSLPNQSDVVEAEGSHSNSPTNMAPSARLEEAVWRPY
# T1 sequence (Q13951 whole entry): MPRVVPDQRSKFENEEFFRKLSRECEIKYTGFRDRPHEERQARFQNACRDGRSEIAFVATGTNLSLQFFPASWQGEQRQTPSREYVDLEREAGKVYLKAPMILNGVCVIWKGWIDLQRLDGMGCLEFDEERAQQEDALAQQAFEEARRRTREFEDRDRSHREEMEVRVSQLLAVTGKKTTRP
# Sequence of Cytochrome P450 2C19 (P33261 whole entry): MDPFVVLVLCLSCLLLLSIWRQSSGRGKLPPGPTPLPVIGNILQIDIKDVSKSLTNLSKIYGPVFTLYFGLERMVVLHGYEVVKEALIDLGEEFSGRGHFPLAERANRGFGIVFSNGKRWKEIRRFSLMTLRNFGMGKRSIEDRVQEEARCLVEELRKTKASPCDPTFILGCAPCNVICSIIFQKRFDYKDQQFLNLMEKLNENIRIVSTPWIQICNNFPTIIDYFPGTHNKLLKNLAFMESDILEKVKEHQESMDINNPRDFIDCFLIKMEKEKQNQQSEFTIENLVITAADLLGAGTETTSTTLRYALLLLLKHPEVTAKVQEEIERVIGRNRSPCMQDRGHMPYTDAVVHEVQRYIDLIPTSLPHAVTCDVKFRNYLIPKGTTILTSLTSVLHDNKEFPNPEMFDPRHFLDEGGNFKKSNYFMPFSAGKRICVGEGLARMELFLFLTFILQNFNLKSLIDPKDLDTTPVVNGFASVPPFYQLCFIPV
# Sequence of DNA damage-inducible transcript 3 protein (P35639 whole entry): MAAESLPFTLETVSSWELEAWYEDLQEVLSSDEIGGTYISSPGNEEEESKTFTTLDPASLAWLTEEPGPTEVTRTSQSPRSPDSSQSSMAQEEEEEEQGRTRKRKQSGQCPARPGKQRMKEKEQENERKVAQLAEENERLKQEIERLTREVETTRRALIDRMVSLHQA
smiles,measurement,setting,value
O=C(CN1CCN(c2ccc(O)cc2)CC1)NC(c1ccccc1)c1ccccc1,IC50,[1],> 100 µM (inactive)
same,EC50,[2],28.5 µM (active)
same,IC50,[3],> 100 µM (inactive)
COc1ccc(C(=O)C2=C(O)C(=O)N(Cc3cccnc3)C2c2ccco2)cc1OC (centres undefined),EC50,[4],64 µM (inactive)
same,AC50,[5],0.0891 µM (inconclusive)
CSc1cccc(N2CC(C(=O)NCCN3C(=O)S/C(=C\c4cccnc4)C3=O)CC2=O)c1 (centres undefined),IC50,[6],10.5 µM (inactive)
same,IC50,[7],> 49.8 µM (inactive)
same,IC50,[8],> 50 µM (inactive)
same,IC50,[9],0.354 µM (active)
same,IC50,[10],20.6 µM (inactive)
same,IC50,[11],3.1 µM (active)
CC(=O)NCCc1csc(-c2ccccc2)n1,IC50,[12],> 100 µM (inactive)
same,IC50,[13],> 100 µM (not active)
CC(=NNC(=S)SCc1ccccc1)c1ccccn1,CC50,[14],< 0.08 µM (active)
same,IC50,[15],12.2 µM (active)
same,EC50,[16],> 80 µM (inactive)
same,EC50,[17],1.61 µM (active)
CCOc1ccc(-c2csc(/C(C#N)=C\c3ccc(O)c([N+](=O)[O-])c3)n2)cc1,IC50,[18],6.74 µM (active)
same,IC50,[19],2.58 µM (inactive)
same,IC50,[20],6.61 µM (active)
same,IC50,[21],1.83 µM (active)
same,EC50,[22],1.52 µM (active)
same,EC50,[23],2.18 µM (active)
same,EC50,[24],3.58 µM (active)
same,EC50,[25],6.23 µM (active)
same,CC50,[26],10.5 µM (active)
same,AC50,[27],4 µM (active)
same,IC50,[28],> 20 µM (inactive)
same,IC50,[29],6.63 µM (active)
CCOc1ccc(C2c3[nH]c4ccccc4c3CCN2Cc2cccn2-c2ncccn2)cc1 (centres undefined),CC50,[30],16 µM (active)
same,EC50,[31],1.6 µM (active)
COc1ccc(N2CCN(C(=O)c3c(-c4ccccc4)noc3C)CC2)cc1,IC50,[32],> 50 µM (inactive)
COC(=O)Oc1ccc(/C=N/NC(=O)CSCc2ccccc2Br)cc1OC,Absolute IC50 (CHOP),[33],10 µM
CN(C1CCCCC1)S(=O)(=O)c1ccc(NC(=O)C2CCCCC2C(=O)O)cc1 (centres undefined),IC50,[34],4.72 µM (active)
